Measured values taken from BindingDB's records for doi:10.1021/jm970857f (Eli Lilly, 1998).
Counter-ions that a name gives are not always drawn.

Target: T1, Alpha-1A adrenergic receptor (Rattus norvegicus, UniProt P43140)
T1 sequence (P43140 whole entry): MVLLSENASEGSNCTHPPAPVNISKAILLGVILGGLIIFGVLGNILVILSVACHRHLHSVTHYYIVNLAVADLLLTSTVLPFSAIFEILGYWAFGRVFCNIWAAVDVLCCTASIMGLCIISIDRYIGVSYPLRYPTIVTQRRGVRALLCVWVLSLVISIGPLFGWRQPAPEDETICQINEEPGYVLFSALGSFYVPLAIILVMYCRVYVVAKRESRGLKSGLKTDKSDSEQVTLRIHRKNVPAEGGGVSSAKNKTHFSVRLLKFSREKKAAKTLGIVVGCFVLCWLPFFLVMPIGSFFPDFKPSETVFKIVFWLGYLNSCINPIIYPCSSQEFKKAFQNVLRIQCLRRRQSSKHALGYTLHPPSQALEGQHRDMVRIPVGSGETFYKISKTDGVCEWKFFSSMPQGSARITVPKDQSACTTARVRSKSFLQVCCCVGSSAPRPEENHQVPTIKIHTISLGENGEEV

SMILES	Ki [µM]
CC(C)n1nc(C(=O)NCCN2CCC(NC(=O)OCc3ccccc3)CC2)c2ccccc21 [N-(2-(4-((Benzyloxycarbonyl)amino)-1-piperidinyl)-ethyl)-1-isopropylindazole-3-carboxamide Oxalate]	> 10
CC(C)n1nc(C(=O)NC2CCN(CCNS(C)(=O)=O)CC2)c2ccccc21 [N-(1-(2-((N-Methylsulfonyl)amino)ethyl)piperidin-4-yl)-1-isopropylindazole-3-carboxamide Maleate]	> 10
CC(C)n1nc(C(=O)NC2CCN(Cc3ccccc3)CC2)c2ccccc21 [N-(1-Benzylpiperidin-4-yl)-1-isopropylindazole-3-carboxamide Hydrochloride]	> 10
